The text below walks through data of ChEMBL document CHEMBL1817560, “Selectivity of kinase inhibitor fragments” (J Med Chem, 2011).

Holding throughout (conditions): read-out: IC50
For assay [1], the target named is T1, Inhibitor of nuclear factor kappa-B kinase subunit beta (Homo sapiens, UniProt O14920).
T1 sequence (O14920 whole entry): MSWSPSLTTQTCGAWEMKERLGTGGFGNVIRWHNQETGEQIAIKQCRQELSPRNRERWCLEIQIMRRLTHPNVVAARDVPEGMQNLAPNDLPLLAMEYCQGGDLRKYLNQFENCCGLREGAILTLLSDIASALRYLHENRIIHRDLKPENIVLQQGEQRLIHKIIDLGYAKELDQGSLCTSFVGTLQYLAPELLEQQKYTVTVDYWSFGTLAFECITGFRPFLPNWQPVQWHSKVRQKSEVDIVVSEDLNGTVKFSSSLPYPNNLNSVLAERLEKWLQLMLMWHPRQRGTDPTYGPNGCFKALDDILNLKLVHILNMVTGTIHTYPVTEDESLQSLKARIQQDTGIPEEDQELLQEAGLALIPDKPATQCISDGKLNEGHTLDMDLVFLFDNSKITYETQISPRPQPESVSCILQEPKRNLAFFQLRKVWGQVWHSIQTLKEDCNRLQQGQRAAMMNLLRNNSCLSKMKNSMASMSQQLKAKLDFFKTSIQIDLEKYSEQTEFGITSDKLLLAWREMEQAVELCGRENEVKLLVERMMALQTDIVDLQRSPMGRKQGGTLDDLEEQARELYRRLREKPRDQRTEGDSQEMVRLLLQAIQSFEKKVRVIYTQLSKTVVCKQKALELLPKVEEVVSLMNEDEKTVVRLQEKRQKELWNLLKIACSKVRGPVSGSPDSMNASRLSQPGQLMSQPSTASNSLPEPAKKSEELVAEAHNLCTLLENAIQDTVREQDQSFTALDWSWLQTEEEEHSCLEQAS
Kind of assay: biochemical. Type of assay: cell-based.

Assay [2] deals with Mitogen-activated protein kinase 8 (Homo sapiens, UniProt P45983). Kind of assay: Inhibition of JNK1 expressed in Escherichia coli or baculovirus-infected insect cells by TR-FRET assay. A general note: TR-FRET usually uses a lanthanide donor and a delayed reading to cut background.
Assay [3] concerns the target RAC-alpha serine/threonine-protein kinase (Homo sapiens, UniProt P31749). Kind of assay: Inhibition of AKT1 expressed in Escherichia coli or baculovirus-infected insect cells by scintillation proximity assay. In general terms: In a scintillation proximity assay essentially only radioactivity close to the scintillant gives light.

Mitogen-activated protein kinase 8, sequence (P45983 whole entry): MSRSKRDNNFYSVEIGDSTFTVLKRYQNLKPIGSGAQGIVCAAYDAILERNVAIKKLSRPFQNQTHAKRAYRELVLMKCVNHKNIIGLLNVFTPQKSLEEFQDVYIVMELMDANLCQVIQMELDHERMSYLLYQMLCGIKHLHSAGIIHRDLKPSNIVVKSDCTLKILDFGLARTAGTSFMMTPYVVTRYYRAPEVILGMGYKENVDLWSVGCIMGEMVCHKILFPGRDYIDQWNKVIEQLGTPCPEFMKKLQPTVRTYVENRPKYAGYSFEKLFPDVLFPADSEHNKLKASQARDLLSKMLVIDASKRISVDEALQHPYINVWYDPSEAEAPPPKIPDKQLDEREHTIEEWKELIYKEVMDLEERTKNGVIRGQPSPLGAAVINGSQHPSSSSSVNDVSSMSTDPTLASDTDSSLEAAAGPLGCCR
RAC-alpha serine/threonine-protein kinase, sequence (P31749 whole entry): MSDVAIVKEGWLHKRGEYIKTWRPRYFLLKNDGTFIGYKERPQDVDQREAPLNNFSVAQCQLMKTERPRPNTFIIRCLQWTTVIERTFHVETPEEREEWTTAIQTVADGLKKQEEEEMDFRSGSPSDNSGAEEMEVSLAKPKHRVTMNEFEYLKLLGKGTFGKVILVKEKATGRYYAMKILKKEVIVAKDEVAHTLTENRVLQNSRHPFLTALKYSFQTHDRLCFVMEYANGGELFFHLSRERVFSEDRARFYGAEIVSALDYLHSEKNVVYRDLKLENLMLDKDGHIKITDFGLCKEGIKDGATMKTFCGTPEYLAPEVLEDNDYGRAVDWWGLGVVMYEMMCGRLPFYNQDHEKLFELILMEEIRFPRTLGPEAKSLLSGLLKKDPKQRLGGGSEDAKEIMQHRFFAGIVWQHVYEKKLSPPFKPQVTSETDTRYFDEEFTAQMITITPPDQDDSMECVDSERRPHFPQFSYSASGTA

For `Cc1cc2c(-c3ccc(S(=O)(=O)N(C)CCO)cc3)ccnc2[nH]1`, the IC50 – broadly, the concentration needed to halve the response being measured – in assay [1] was 15 nM.

Take `Nc1ccc(-c2cnc3[nH]cc(-c4ccoc4)c3c2)cc1`: the IC50 in assay [2] was under 500 nM.

As for `NCC(NC(=O)c1ccc(-c2ccnc3[nH]ccc23)s1)c1ccccc1` (stereo not drawn), the IC50 in assay [3] worked out at 190 nM.
